According to article PMC8500670, “A selective WDR5 degrader inhibits acute myeloid leukemia in patient-derived mouse models” (Science translational medicine, 2021):

Assays:
[1] = target: T1, G9a (Homo sapiens, UniProt Q96KQ7); assay: biochemical; set-up: protein methyltransferase inhibition panel, single concentration, duplicate
T1 construct: gene EHMT2
T1 sequence (Q96KQ7 1-1210): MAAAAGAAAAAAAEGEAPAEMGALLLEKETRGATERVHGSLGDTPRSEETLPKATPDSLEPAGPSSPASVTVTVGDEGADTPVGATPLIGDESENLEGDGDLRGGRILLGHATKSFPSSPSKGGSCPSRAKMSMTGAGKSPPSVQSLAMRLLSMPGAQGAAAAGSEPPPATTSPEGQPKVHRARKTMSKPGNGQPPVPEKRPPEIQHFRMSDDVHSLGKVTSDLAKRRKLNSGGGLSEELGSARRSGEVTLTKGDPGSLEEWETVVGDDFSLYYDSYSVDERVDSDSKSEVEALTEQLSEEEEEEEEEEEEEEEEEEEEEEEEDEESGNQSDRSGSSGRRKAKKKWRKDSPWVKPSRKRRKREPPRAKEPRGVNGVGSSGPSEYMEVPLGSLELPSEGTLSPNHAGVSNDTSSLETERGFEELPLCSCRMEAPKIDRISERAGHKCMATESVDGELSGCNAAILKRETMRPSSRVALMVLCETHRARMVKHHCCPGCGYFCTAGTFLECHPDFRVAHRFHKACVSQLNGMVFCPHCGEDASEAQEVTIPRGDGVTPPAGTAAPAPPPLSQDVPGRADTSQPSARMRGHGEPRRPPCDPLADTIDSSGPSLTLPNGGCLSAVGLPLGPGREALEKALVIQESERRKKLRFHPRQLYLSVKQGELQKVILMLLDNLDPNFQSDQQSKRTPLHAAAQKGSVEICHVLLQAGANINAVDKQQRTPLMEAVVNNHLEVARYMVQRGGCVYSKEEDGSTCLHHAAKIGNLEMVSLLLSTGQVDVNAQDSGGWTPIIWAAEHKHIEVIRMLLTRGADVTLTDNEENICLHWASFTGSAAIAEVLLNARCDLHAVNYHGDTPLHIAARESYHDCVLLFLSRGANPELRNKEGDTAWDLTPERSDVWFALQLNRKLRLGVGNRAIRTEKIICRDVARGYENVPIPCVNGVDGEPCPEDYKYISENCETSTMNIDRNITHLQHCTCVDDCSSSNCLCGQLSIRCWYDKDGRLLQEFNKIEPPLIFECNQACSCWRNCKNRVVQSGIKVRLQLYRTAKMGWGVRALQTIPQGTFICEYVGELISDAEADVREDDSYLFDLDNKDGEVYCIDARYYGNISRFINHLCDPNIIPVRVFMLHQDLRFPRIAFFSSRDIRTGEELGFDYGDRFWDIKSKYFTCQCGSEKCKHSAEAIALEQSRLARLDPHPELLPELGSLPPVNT
Description: (§1) We next assessed selectivity of MS67 against 22 protein methyltransferases (table S2) and a broad panel of common drug targets including 45 kinases (table S3) and 44 G protein–coupled receptors (GPCR), ion channels, and transporters (table S4). […] We subsequently determined that MS67 had moderate binding affinity (Ki = 1.0 ± 0.8 μM) to Sigma 2 receptor (fig. S10).

[2] = target: T2, PRMT7 (Homo sapiens, UniProt Q9NVM4); assay: biochemical; set-up: protein methyltransferase inhibition panel, single concentration, duplicate
T2 sequence (Q9NVM4 1-692): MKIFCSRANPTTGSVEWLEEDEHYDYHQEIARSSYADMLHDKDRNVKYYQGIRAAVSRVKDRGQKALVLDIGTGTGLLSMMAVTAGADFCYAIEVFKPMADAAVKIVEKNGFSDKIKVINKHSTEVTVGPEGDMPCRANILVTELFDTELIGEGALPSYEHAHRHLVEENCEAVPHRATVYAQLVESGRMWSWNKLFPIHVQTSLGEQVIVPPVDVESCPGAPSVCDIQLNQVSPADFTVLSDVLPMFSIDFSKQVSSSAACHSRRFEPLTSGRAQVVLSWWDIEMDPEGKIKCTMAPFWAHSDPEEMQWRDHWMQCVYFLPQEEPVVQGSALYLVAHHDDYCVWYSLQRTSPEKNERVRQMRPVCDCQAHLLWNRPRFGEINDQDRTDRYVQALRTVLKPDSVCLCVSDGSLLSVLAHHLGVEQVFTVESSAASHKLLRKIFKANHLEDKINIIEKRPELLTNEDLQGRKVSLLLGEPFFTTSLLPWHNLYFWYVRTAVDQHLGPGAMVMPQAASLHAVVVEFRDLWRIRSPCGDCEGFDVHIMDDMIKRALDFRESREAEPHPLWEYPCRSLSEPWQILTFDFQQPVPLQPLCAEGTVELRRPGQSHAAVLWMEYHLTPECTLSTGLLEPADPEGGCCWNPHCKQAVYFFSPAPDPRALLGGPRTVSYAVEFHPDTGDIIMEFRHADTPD
Description: as §1

**Q.** Which inhibition at 10 µM [1] does the source give for `Cc1ncsc1-c1ccc([C@H](C)NC(=O)[C@@H]2C[C@@H](O)CN2C(=O)[C@@H](NC(=O)CNC(=O)c2ccc(F)c(-c3ccc(N4C[C@@H](C)N(C)[C@@H](C)C4)c(NC(=O)c4c[nH]c(=O)cc4C(F)(F)F)c3)c2)C(C)(C)C)cc1` [MS67] here?
**A.** The inhibition at 10 µM was < 10%.

**Q.** What about the inhibition at 10 µM [2] of the same molecule?
**A.** The inhibition at 10 µM was < 10%.
